Several values for one entry are separate records, joined by “and”; a condition that tells them apart may be missing. Identical values can stand only once. Counter-ions that a name gives are not always drawn.
What was measured:
[1] = molecular target: T1, hCav3.2 channels (T-type; CACNA1H) (Homo sapiens, UniProt O95180, V664A); assay: Cav3.2 assay (T-type), IonWorks Quattro planar array electrophysiology in stable HEK293 cells; assay type: cell-based; settings: for IC50: current elicited by the 1st depolarising pulse inhibited by 50%, read-out: pIC50 (tonic) (converted)
T1 construct: predicted protein is equivalent to the full-length human variant NP_066921; expressed in transfected cells; plasmid pCIN5-human-alpha1H
T1 sequence (O95180 whole entry V664A): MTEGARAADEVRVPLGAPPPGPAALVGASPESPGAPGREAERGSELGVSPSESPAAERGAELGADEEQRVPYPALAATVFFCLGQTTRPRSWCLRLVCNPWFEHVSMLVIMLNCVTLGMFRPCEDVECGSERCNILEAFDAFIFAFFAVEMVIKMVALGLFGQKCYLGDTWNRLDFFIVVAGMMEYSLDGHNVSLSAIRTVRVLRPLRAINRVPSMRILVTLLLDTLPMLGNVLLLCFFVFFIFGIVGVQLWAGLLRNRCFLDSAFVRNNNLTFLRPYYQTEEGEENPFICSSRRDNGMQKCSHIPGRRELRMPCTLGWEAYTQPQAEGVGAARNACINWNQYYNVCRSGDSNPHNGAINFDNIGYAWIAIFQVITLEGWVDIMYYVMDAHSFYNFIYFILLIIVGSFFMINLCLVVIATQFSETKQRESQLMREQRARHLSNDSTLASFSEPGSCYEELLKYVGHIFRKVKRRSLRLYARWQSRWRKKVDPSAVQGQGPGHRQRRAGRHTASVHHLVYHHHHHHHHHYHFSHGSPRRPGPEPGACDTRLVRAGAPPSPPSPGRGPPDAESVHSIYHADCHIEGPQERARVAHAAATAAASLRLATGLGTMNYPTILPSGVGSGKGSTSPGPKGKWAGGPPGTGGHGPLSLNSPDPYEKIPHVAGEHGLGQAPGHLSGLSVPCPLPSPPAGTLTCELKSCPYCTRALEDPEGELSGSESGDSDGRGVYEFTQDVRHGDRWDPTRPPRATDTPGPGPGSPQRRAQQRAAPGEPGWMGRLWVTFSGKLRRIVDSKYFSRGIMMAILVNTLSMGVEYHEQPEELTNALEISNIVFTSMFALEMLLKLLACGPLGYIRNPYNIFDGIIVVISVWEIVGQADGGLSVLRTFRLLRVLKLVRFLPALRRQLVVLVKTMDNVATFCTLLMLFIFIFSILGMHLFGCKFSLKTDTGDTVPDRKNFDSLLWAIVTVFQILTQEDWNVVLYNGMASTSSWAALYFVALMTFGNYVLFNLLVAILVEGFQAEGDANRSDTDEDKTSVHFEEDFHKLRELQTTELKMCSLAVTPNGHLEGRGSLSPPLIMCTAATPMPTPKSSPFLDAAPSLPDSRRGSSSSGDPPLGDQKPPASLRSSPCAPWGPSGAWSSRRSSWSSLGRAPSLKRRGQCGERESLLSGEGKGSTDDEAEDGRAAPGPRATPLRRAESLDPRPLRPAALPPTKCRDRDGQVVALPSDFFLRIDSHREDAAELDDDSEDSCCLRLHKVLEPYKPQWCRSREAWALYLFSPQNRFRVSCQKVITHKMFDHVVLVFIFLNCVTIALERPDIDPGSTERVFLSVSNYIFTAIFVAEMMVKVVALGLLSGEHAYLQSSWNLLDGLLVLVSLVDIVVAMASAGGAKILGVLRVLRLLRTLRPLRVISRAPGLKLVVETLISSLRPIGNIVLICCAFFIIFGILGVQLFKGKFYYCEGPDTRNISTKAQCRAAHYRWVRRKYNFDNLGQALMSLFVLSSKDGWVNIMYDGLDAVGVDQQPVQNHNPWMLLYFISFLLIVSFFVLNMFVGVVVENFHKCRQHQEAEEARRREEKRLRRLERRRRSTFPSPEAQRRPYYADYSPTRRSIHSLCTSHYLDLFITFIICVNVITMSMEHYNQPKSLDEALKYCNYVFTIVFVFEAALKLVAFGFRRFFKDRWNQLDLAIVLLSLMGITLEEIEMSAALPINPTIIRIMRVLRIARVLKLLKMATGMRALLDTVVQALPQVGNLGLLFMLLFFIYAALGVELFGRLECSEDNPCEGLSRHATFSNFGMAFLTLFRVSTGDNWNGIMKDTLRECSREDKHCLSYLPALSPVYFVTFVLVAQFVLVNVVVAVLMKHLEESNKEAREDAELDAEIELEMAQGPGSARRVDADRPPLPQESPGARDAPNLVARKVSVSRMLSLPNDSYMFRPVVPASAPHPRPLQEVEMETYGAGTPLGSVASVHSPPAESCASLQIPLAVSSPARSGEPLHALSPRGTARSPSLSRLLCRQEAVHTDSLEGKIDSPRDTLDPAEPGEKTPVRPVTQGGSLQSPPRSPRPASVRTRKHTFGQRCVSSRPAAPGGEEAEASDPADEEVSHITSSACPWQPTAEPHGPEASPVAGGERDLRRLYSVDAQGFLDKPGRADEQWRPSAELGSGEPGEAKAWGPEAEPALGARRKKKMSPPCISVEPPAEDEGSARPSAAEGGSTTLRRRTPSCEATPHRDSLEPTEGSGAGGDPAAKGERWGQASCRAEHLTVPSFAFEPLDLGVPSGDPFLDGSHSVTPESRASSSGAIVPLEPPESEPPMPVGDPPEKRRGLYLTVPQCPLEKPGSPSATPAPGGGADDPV
Text: The ability of the compounds of the invention to modulate the voltage-gated calcium channel subtype Cav3.2 (T-Type) may be determined by the following assay.
Stable cell lines expressing hCav3.2 channels were created by transfecting HEK293 cells with the plasmid pCIN5-human-alpha1H. pCIN5-human-alpha1H predicted protein is equivalent to the full-length human variant NP_066921 for the human ion channel CACNA1H (voltage dependent calcium channel T type alpha 1H subunit), the longer variant form. It contains minor alleles for two SNPs (Ala 664 and Arg 2077). However, in the absence of any knowledge about compound binding at this ion channel, these rare variants are not seen as issues. Stable cell line was selected by 500 ug/ml G418 (geneticin). The best cell line clone was selected by IonWorks. Cells were cultured in DMEM/F12 medium supplemented by 10% Foetal Bovine Serum (Gibco/Invitrogen #041-95750), 1% non-essential amino acids (PAA, M11-003) and 1% Penicillin-Streptomycin (Invitrogen, 15140-122). 500 ug/ml of G418 (PAA, P11-012) was added to maintain channel expression. Cells were grown and maintained at 37° C. in a humidified environment containing 5% CO2 in air. Cells were detached from the T175 culture flask for passage and harvesting using TrypLE (Gibco/Invitrogen cat #12604). For the experiment, cells were plated in a T175 culture flask 48 hours before running the assay to reach a 50-80% confluence the day of the experiment.
Cells were grown to 50-80% confluence in a T175 flask. Cells were removed from the incubator and the media was aspirated. Cells were washed with 5 ml of warmed (37° C.) TrypLE and then 3 ml of warmed (37° C.) TrypLE was added to the flask for 6 min. The flask was tapped to dislodge cells and 5 ml of warmed (37° C.) external buffer with barium and magnesium was added to prepare a cell suspension. Cell suspension was then placed into a 15 ml centrifuge tube and centrifuged for 2 min at 1000 rpm. After centrifugation, the supernatant was removed and the cell pellet was resuspended in 4-5 ml of pre-warmed (37° C.) external solution with barium and magnesium using a 5 ml pipette to break up the pellet.
Currents were recorded at room temperature using the IonWorks Quattro™ planar array electrophysiology technology (Molecular Devices Corp.) with PatchPlate™ PPC for Ionworks Quattro (Molecular Devices, 9000-0902). Stimulation protocols and data acquisition were carried out using a microcomputer (Dell Pentium 4). In order to determine planar electrode hole resistances (Rp), a 10 mV voltage step was applied across each well. These measurements were performed before cell addition. After cell addition a seal test was performed by applying a voltage step from −80 mV to −70 mV for 160 ms prior to antibiotic amphotericin-B solution (Sigma, […]) circulation to achieve intracellular access. Leak subtraction was conducted in all experiments by applying a 80 ms hyperpolarizing (10 mV) prepulse followed by a 80 ms at the holding potential before the test pulses, to measure leak current. Test pulses stepping from the holding potential of −120 mV to −40 mV were applied for 25 ms and repeated 10 times at a frequency of 3 Hz. In all experiments, the test pulse protocol was performed in the absence (pre-read) and presence (post-read) of a compound. Pre- and post-reads were separated by a compound addition followed by a 10 minute incubation.
The intracellular solution contained the following (in mM): K-gluconate 120, KCl 20, MgCl2 5, EGTA 5, HEPES 10, adjusted to pH 7.35.
Amphotericin-B solution was prepared as 50 mg/ml stock solution in DMSO and diluted to a final working concentration of 0.2 mg/ml in intracellular solution. The external solution contained the following (in mM): Na-gluconate 120, NaCl 20, HEPES 10, MgCl2 1, BaCl2 5, with a pH of 7.35.
Compounds were prepared in DMSO as 10 mM stock solutions and subsequent 1:3 serial dilutions were performed. […]

[2] = molecular target: T2, hCav2.2 (N-type) calcium channel: human Cav2.2α (α1B) subunit with human β3 and α2δ1 auxiliary subunits (Homo sapiens, UniProt Q00975); assay: hCav2.2 assay (N-type), IonWorks planar array electrophysiology in stable HEK293 cells; assay type: cell-based; settings: hydrochloride
T2 construct: expressed in transfected cells; plasmids pCIN5-hCav2.2, pCIH-hCav β3, pCIP-α2δ1
Procedure: Compounds as defined in the first or second aspect may be tested for in vitro biological activity in the hCav2.2 assay (N-type) in accordance with the following studies:
Stable cell lines expressing the human Cav2.2α (α1B) subunit, along with the human β3 and α2δ1 auxiliary subunits were created following sequential transfection and selection of human embryonic kidney (HEK293) cells. HEK293 cells were cultured in Dulbecco's modified Eagles media/F12 media (Invitrogen, Cat #041-95750V) containing 10% fetal bovine serum, with added L-glutamine (2 mM; Invitrogen, Cat #25030-024) and non-essential amino acids (5%; Invitrogen, Cat #11140-035). […] These clonal cell lines were assessed for Cav2.2 α/β3-mediated current expression using the IonWorks planar array electrophysiology technology (described below). […]
Currents were recorded at room temperature (21-23° C.) using the IonWorks planar array electrophysiology technology (Molecular Devices Corp.). […] In all experiments, the test pulse protocol was performed in the absence (pre-read) and presence (post-read) of a compound. Pre- and post-reads were separated by a compound addition followed by a 3-3.5 min incubation. […]

IC50 [1] | Structure (SMILES) | other results
≤ 31.6 µM | Cc1cc(C#N)ccc1S(=O)(=O)N1CCN(C(=O)c2cccc3ccncc23)CC1 [Compound 26, 4-{[4-(8-Isoquinolinylcarbonyl)-1-piperazinyl]sulfonyl}-3-methylbenzonitrile hydrochloride] | –
25.1 µM and ≤ 31.6 µM | Cl.O=C(c1ccc2ccccc2n1)N1CCN(S(=O)(=O)c2ccc(C(F)(F)F)cc2)CC1 [Compound 3, 2-[(4-{[4-(Trifluoromethyl)phenyl]sulfonyl}-1-piperazinyl)carbonyl]quinoline hydrochloride] | pUD30 (use-dependent) ([1]; concentration producing 30% use-dependent inhibition, 10th versus 1st depolarising pulse, 3 Hz, -120 mV to -40 mV, hydrochloride): 5.4; pUD30 (use-dependent) ([2]; concentration producing 30% use-dependent inhibition, 10th versus 1st depolarising pulse, 10 Hz, -90 mV to +10 mV): 5.8; pIC50 (tonic) ([2]; current elicited by the 1st depolarising pulse inhibited by 50%): 4.6
≤ 31.6 µM | Cc1ccc2ccc(C(=O)N3CCN(S(=O)(=O)c4ccc(C#N)cc4C)C[C@@H]3C)cc2n1 [Compound 10, 3-Methyl-4-({(3S)-3-methyl-4-[(2-methyl-7-quinolinyl)carbonyl]-1-piperazinyl}sulfonyl)benzonitrile] | –
≤ 31.6 µM | O=C(c1cccc2cccnc12)N1CCN(S(=O)(=O)c2ccc(OC(F)(F)F)cc2)CC1 [Compound 30, 8-{[4-({4-[(Trifluoromethyl)oxy]phenyl}sulfonyl)-1-piperazinyl]carbonyl}quinoline] | –
≤ 31.6 µM | Cc1ccc2ccc(C(=O)N3CCN(S(=O)(=O)c4ccc(C#N)cc4C)CC3)cc2n1 [Compound 9, 3-Methyl-4-({4-[(2-methyl-7-quinolinyl)carbonyl]-1-piperazinyl}sulfonyl)benzonitrile hydrochloride] | –
≤ 31.6 µM | Cc1c(C(=O)N2CCN(S(=O)(=O)c3ccc(OC(F)(F)F)cc3)CC2)ccc2cccnc12 [Compound 2, 8-Methyl-7-{[4-({4-[(trifluoromethyl)oxy]phenyl}sulfonyl)-1-piperazinyl]carbonyl}quinoline] | –
≤ 31.6 µM | Cc1cc(C#N)ccc1S(=O)(=O)N1CCN(C(=O)c2ccc3cccnc3c2C)[C@@H](C)C1 [Compound 15, 3-Methyl-4-({(3S)-3-methyl-4-[(8-methyl-7-quinolinyl)carbonyl]-1-piperazinyl}sulfonyl)benzonitrile] | –
≤ 31.6 µM | Cc1cc(C#N)ccc1S(=O)(=O)N1CCN(C(=O)c2ccc3cccnc3c2)CC1 [Compound 7, 3-Methyl-4-{[4-(7-quinolinylcarbonyl)-1-piperazinyl]sulfonyl}benzonitrile hydrochloride] | –
≤ 31.6 µM | C[C@H]1CN(S(=O)(=O)c2ccc(C(F)(F)F)cc2)CCN1C(=O)c1ccc2cccnc2c1 [Compound 1, 7-[((2S)-2-Methyl-4-{[4-(trifluoromethyl)phenyl]sulfonyl}-1-piperazinyl)carbonyl]quinoline] | –

Source: patent publication US8697703B2, “Piperazine derivatives for blocking Cav2.2 calcium channels” (Convergence Pharmaceuticals Limited, priority 2010, dated 2014)
